The source of these data is patent US20220249413A1, “SWELL 1 MODULATORS FOR TREATMENT OF NON-ALCOHOLIC FATTY LIVER DISEASE, IMMUNE DEFICIENCIES, MALE INFERTILITY AND VASCULAR DISEASES” (priority 2019, published 2022).

This experiment addresses T1, ICl,SWELL (Homo sapiens, UniProt Q8IWT6).
T1 construct: endogenous in cells; host or cells: HEK cells (printed 'BEK cells')
T1 sequence (Q8IWT6 1-810): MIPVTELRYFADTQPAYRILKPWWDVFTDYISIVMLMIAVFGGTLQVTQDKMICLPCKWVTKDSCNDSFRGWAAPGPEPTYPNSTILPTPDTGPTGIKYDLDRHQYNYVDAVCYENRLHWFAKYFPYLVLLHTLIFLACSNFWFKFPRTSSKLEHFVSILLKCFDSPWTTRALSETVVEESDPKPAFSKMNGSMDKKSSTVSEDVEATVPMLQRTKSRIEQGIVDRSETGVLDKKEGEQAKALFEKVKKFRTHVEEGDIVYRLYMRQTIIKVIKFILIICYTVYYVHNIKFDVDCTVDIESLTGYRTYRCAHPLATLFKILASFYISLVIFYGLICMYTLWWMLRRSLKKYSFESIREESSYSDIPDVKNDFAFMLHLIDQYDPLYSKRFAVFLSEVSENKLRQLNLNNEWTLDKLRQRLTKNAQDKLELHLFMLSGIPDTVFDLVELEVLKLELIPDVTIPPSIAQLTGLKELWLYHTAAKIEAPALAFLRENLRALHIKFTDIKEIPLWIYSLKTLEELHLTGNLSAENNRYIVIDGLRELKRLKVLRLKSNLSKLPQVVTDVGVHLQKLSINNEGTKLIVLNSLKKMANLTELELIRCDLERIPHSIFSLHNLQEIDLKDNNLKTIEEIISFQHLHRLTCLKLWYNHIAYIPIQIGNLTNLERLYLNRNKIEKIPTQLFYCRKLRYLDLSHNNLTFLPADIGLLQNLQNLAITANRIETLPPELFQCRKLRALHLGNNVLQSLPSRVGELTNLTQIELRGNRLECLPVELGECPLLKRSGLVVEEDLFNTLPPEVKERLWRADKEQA
Description: ICl,SWELL patch-clamp upon hypotonic stimulation. The format is cell-based. Conditions: 10 μM Smod1, HEK cells (FIG. 2f). How it is done:
For Smod1 (DCPIB) mediated induction of SWELL1 and insulin signaling studies in 3T3-F442A preadipocytes, the cells were incubated with either vehicle (DMSO) or 10 μM Smod1 for 96 h. The cells were serum starved for 6 h (+DMSO or Smod1) and stimulated with 0, 3 and 10 nM insulin containing media (−DMSO or Smod1), as described above for 15 mins and the lysates were collected. In the case of 3T3-F442A adipocytes, the WT and KO cells were treated with either vehicle (DMSO) or 10 μM Smod1 following 7-11 days of differentiation for 96 h and then stimulated with 0 and 10 nM insulin for 15 min, as described above. Human embryonic kidney (HEK) cells were cultured and maintained in 90% DMEM (25 mM D-Glucose and 4 mM L-Glutamine) containing 10% fetal bovine serum (FBS) and 100 IU penicillin and 100 μg/ml streptomycin media.
Electrophysiology Patch-clamp recordings of β-cells and mature adipocytes were performed as described previously (Zhang et al., Nat Cell Biol, 19, 504-517, 2017; Kang et al., Nature Communications, 9, 367, 2018). 3T3-F442A WT and KO preadipocytes were prepared as described in the Cell culture section above. […] Recordings were measured using Axopatch 200B amplifier paired to a Digidata 1550 digitizer using pClamp 10.4 software. […] The images were further analyzed for band intensities using ImageJ software. […]
(In general: Patch clamp records ionic current or voltage across a cell membrane.)

`CCCCC1(C2CCCC2)Cc2cc(OCCCC(=O)O)c(Cl)c(Cl)c2C1=O` (stereo not shown) [Smod1, 4-[(2-Butyl-6,7-dichloro-2-cyclopentyl-2,3-dihydro-1-oxo-1H-inden-5-yl)oxy]butanoic acid]: the “ICl,SWELL inward and outward current after hypotonic stimulation” value was “inhibition”.
